Measured values taken from patent US20240050585A1, “B7-H4-TARGETED ANTIBODY-DRUG CONJUGATES FOR THE TREATMENT OF CANCER” (priority 2022, published 2024).

How the values were obtained:
[1] = system: OV2423 patient derived ovarian cancer; test: Tumor growth response in OV2423 patient derived ovarian cancer xenograft mouse model; settings: 4.54/0.150 mg/kg (antibody/payload) intravenously on day 1; Day 22; female BALB/c nude mice
Protocol: Female BALB/c nude mice were implanted subcutaneously with OV2423 patient derived ovarian cancer tumor fragments (˜2-3 mm^3 per mouse). Animals were randomized into treatment groups when tumor volumes were between 101-230 mm^3 (mean=155mm^3/group) (n=8/group). Vehicle, palivizumab isotype control conjugate (prepared as described in US Patent Application No. 2022/0233707A1, 4.54/0.150 mg/kg) and XMT-1660 (4.61/0.150 mg/kg, DAR 6) were dosed intravenously on day 1 (all doses are given by antibody/payload).

[2] = system: mBR9013 syngeneic breast cancer; test: Tumor growth response in mBR9013 syngeneic breast cancer mouse model; settings: for TGI (tumor volume compared to vehicle control): day 15, female FVB/NJ mice
Protocol: Female FVB/NJ mice were implanted subcutaneously with mBR9013 tumor fragments (2-3 mm^3). Animals were randomized into treatment groups when tumor volumes were between 96-277 mm^3 (mean=148 mm^3/group) (n=8/group). […] Vehicle, isotype control conjugate and XMT-1660 were dosed intravenously.

palivizumab isotype control conjugate
TGI (tumor volume compared to vehicle control) [1]: 24.8% | TGI (tumor volume compared to vehicle control) ([2]; 1.51/0.050 mg/kg (antibody/payload) intravenously on day 1): −7.91% | TGI (tumor volume compared to vehicle control) ([2]; 4.54/0.150 mg/kg (antibody/payload) intravenously on day 1): 32.02% | body weight loss or clinical observations ([2]; mouse, in vivo): No significant body weight loss or clinical observations
